# Tests used:
# [1] = Solubility of melatonin in water / aqueous solution; type: physicochemical; settings: straightforward attempts at dissolving melatonin in water
# Description: The pharmaceutical composition of the present invention may be in the form of a powder, solution, emulsion, suspension, or micellar, microsphere, microcapsular, nanoparticulate or liposomal preparation. Melatonin and most of its analogues, derivatives and metabolites are only sparingly soluble in water, straightforward attempts at dissolving melatonin in water yielding a maximum melatonin concentration of only 0.1 mg/mL. Higher concentrations of melatonin are needed if aqueous preparations of melatonin are to be administered in a convenient manner, e.g. by the inhalation of an aerosol of the preparation, to the airways epithelium at the concentrations estimated to be necessary to exert a protective action against free radical damage. A method of achieving this is outlined below.
# A further formulation is to supply the composition as a dry powder as described above in a capped vial, to be reconstituted as a solution for nebulization by adding a given volume of sterile water from a second vial, to be used within one hour. The water for dissolving the formulation may contain the empirically determined amount of salts and buffering ions to produce a solution of the composition that has a near-physiological pH and osmolarity with reference to plasma to avoid the provocation of cough and bronchoconstriction on inhalation. […]
# [2] = Stability (suitability for use in a pharmaceutical composition); settings: hence unsuitable for use in a pharmaceutical composition
# lung = settings: use of cytotoxic chemotherapeutic agents for cancer; cited from earlier work
molecule,measurement,setting,value
"COc1ccc2[nH]cc(CCNC(C)=O)c2c1 [melatonin, N-acetyl-5-methoxytryptamine]",maximum melatonin concentration in water,[1],0.1 mg/mL
COc1ccc(N)c(C(=O)CCNC(C)=O)c1 [N^1-acetyl-5-methoxykynuramine],stability,[2],unstable
Bleomycin,overall rate of pulmonary damage,lung,over 40%
